Measured values: ChEMBL document CHEMBL3046389, “Synthesis and biological evaluation of novel hydroquinone dimethyl ethers as potential anticancer and antimicrobial agents” (2013)
In brackets after ≈: the same amount, converted by molar mass.

What was measured:
Format in all cases: functional
HL-60(TB) = assay: Growth inhibition of Homo sapiens (human) HL-60(TB) cells at 10 uM after 48 hr by SRB assay; conditions: HL-60, 48 h, read-out: GI
CAKI-1 = assay: Anticancer activity against Homo sapiens (human) CAKI-1 cells after 48 hr by SRB assay; conditions: CAKI-1, 48 h; for CC50: read-out: LC50 (the source's name)
COLO 205 = assay: Anticancer activity against Homo sapiens (human) COLO205 cells after 48 hr by SRB assay; conditions: COLO 205, 48 h; for CC50: read-out: LC50 (the source's name)
A498 = assay: Anticancer activity against Homo sapiens (human) A498 cells after 48 hr by SRB assay; conditions: A498, 48 h
K562 = assay: Growth inhibition of Homo sapiens (human) K562 cells at 10 uM after 48 hr by SRB assay; conditions: K562, 48 h, read-out: GI
BT-549 = assay: Growth inhibition of Homo sapiens (human) BT549 cells at 10 uM after 48 hr by SRB assay; conditions: BT-549, 48 h, read-out: GI
A549 = assay: Growth inhibition of Homo sapiens (human) A549/ATCC cells at 10 uM after 48 hr by SRB assay; conditions: A549, 48 h, read-out: GI
HCT-116 = assay: Growth inhibition of Homo sapiens (human) HCT116 cells at 10 uM after 48 hr by SRB assay; conditions: HCT-116, 48 h, read-out: GI
786-0 [1] = assay: Anticancer activity against Homo sapiens (human) 786-0 cells after 48 hr by SRB assay; conditions: 786-0, 48 h; for CC50: read-out: LC50 (the source's name)
MCF7 = assay: Anticancer activity against Homo sapiens (human) MCF7 cells after 48 hr by SRB assay; conditions: MCF7, 48 h; for CC50: read-out: LC50 (the source's name)
SR = assay: Anticancer activity against Homo sapiens (human) SR cells after 48 hr by SRB assay; conditions: for CC50: read-out: LC50 (the source's name)
SN12C = assay: Anticancer activity against Homo sapiens (human) SN12C cells after 48 hr by SRB assay
PC-3 = assay: Anticancer activity against Homo sapiens (human) PC3 cells after 48 hr by SRB assay; conditions: PC-3, 48 h; for CC50: read-out: LC50 (the source's name)
SNB-19 [2] = assay: Anticancer activity against Homo sapiens (human) SNB19 cells after 48 hr by SRB assay; conditions: SNB-19, 48 h; for CC50: read-out: LC50 (the source's name)
SK-MEL-2 = assay: Anticancer activity against Homo sapiens (human) SK-MEL-2 cells after 48 hr by SRB assay; conditions: SK-MEL-2, 48 h; for CC50: read-out: LC50 (the source's name)
OVCAR-4 = assay: Anticancer activity against Homo sapiens (human) OVCAR4 cells after 48 hr by SRB assay; conditions: OVCAR-4, 48 h; for CC50: read-out: LC50 (the source's name)
HOP-92 = assay: Anticancer activity against Homo sapiens (human) HOP92 cells after 48 hr by SRB assay; conditions: HOP-92, 48 h
SNB-19 [3] = assay: Growth inhibition of Homo sapiens (human) SNB19 cells at 10 uM after 48 hr by SRB assay; conditions: SNB-19, 48 h, read-out: GI
CCRF-CEM = assay: Growth inhibition of Homo sapiens (human) CCRF-CEM cells at 10 uM after 48 hr by SRB assay; conditions: read-out: GI
SK-MEL-5 = assay: Anticancer activity against Homo sapiens (human) SK-MEL-5 cells after 48 hr by SRB assay; conditions: SK-MEL-5, 48 h
EKVX = assay: Anticancer activity against Homo sapiens (human) EKVX cells after 48 hr by SRB assay; conditions: for CC50: read-out: LC50 (the source's name)
IGROV-1 = assay: Anticancer activity against Homo sapiens (human) IGROV1 cells after 48 hr by SRB assay; conditions: IGROV-1, 48 h
SW-620 = assay: Growth inhibition of Homo sapiens (human) SW620 cells at 10 uM after 48 hr by SRB assay; conditions: SW-620, 48 h, read-out: GI
MDA-MB-435 = assay: Anticancer activity against Homo sapiens (human) MDA-MB-435 cells after 48 hr by SRB assay; conditions: MDA-MB-435, 48 h; for CC50: read-out: LC50 (the source's name)
Staphylococcus aureus = assay: Antimicrobial activity against Staphylococcus aureus DSM 1104 after 48 hr by two-fold serial broth dilution method; conditions: DSM 1104, 48 h
Escherichia coli = assay: Antimicrobial activity against Escherichia coli ATCC 11775 after 48 hr by two-fold serial broth dilution method; conditions: ATCC 11775, 48 h
HCT-15 = assay: Growth inhibition of Homo sapiens (human) HCT15 cells at 10 uM after 48 hr by SRB assay; conditions: HCT-15, 48 h, read-out: GI
Bacillus subtilis = assay: Antimicrobial activity against Bacillus subtilis ATCC 6633 after 48 hr by two-fold serial broth dilution method; conditions: ATCC 6633, 48 h
786-0 [4] = assay: Growth inhibition of Homo sapiens (human) 786-0 cells at 10 uM after 48 hr by SRB assay; conditions: 786-0, 48 h, read-out: GI
MDA-MB-468 = assay: Anticancer activity against Homo sapiens (human) MDA-MB-468 cells after 48 hr by SRB assay; conditions: MDA-MB-468, 48 h; for CC50: read-out: LC50 (the source's name)
M14 = assay: Growth inhibition of Homo sapiens (human) M14 cells at 10 uM after 48 hr by SRB assay; conditions: M14, 48 h, read-out: GI
RXF 393 = assay: Growth inhibition of Homo sapiens (human) RXF393 cells at 10 uM after 48 hr by SRB assay; conditions: RXF 393, 48 h, read-out: GI
SNB-75 = assay: Growth inhibition of Homo sapiens (human) SNB75 cells at 10 uM after 48 hr by SRB assay; conditions: SNB-75, 48 h, read-out: GI
ACHN = assay: Growth inhibition of Homo sapiens (human) ACHN cells at 10 uM after 48 hr by SRB assay; conditions: read-out: GI

`COc1ccc(OC)c(/C=C/c2nnc(S)n2-c2ccc(Cl)cc2)c1` gave an inhibition of growth at 10 µM (HL-60(TB)) of 95.7%, a GI50 (CAKI-1) of 2.8 µM and a CC50 (CAKI-1) of over 100 µM. For the same compound, the GI50 (COLO 205) was 12.4 µM, the TGI (COLO 205) was 68.4 µM and the CC50 (COLO 205) was over 100 µM. For the same compound, the GI50 (A498) was 6.66 µM, the LC50 (A498) was over 100 µM and the TGI (A498) was over 100 µM. It also gave an inhibition of growth at 10 µM (K562) of 77.6%, an inhibition of growth at 10 µM (BT-549) of 32.8% and an inhibition of growth at 10 µM (A549) of 33.7%. The inhibition of growth at 10 µM (HCT-116) was 70.4%, the GI50 (786-0 [1]) was 7.17 µM and the TGI (786-0 [1]) was over 100 µM. It also gave a CC50 (786-0 [1]) of over 100 µM, a GI50 (MCF7) of 4.44 µM and a TGI (MCF7) of over 100 µM. It also gave a CC50 (MCF7) of over 100 µM, a GI50 (SR) of 4.56 µM and a TGI (SR) of over 100 µM. For the same compound, the CC50 (SR) was over 100 µM, the GI50 (SN12C) was 6.07 µM and the LC50 (SN12C) was over 100 µM. The TGI (SN12C) was over 100 µM, the GI50 (PC-3) was 8.91 µM and the TGI (PC-3) was over 100 µM. It also gave a CC50 (PC-3) of over 100 µM, a GI50 (SNB-19 [2]) of 12.7 µM and a TGI (SNB-19 [2]) of over 100 µM. It also gave a CC50 (SNB-19 [2]) of over 100 µM, a GI50 (SK-MEL-2) of 4.05 µM and a TGI (SK-MEL-2) of over 100 µM. For the same compound, the CC50 (SK-MEL-2) was over 100 µM, the GI50 (OVCAR-4) was 20.6 µM and the TGI (OVCAR-4) was over 100 µM. It also gave a CC50 (OVCAR-4) of over 100 µM, a GI50 (HOP-92) of 3.56 µM and a TGI (HOP-92) of over 100 µM. It also gave a CC50 (HOP-92; read-out: LC50 (the source's name)) of over 100 µM, an inhibition of growth at 10 µM (SNB-19 [3]) of 48.8% and an inhibition of growth at 10 µM (CCRF-CEM) of 39.4%. For the same compound, the GI50 (SK-MEL-5) was 3.58 µM, the LC50 (SK-MEL-5) was over 100 µM and the TGI (SK-MEL-5) was over 100 µM. For the same compound, the GI50 (EKVX) was 30 µM, the TGI (EKVX) was over 100 µM and the CC50 (EKVX) was over 100 µM. The GI50 (IGROV-1) was 4.38 µM, the LC50 (50% lethal concentration) (IGROV-1) was over 100 µM and the TGI (IGROV-1) was over 100 µM. It also gave an inhibition of growth at 10 µM (SW-620) of 49.6%, a GI50 (MDA-MB-435) of 2.83 µM and a TGI (MDA-MB-435) of over 100 µM. The CC50 (MDA-MB-435) was over 100 µM, the MBC (Staphylococcus aureus) was 100 µg/mL (≈ 267 µM) and the MIC (Staphylococcus aureus) was 100 µg/mL (≈ 267 µM). It also gave an MBC (Escherichia coli) of 50 µg/mL (≈ 134 µM), an MIC (Escherichia coli) of 50 µg/mL (≈ 134 µM) and an inhibition of growth at 10 µM (HCT-15) of 58.8%. For the same compound, the MBC (Bacillus subtilis) was 100 µg/mL (≈ 267 µM), the MIC (Bacillus subtilis) was 100 µg/mL (≈ 267 µM) and the inhibition of growth at 10 µM (786-0 [4]) was 41.1%. The GI50 (MDA-MB-468) was 3.51 µM, the TGI (MDA-MB-468) was 55.4 µM and the CC50 (MDA-MB-468) was over 100 µM. The inhibition of growth at 10 µM (M14) was 69%, the inhibition of growth at 10 µM (RXF 393) was 48.1% and the inhibition of growth at 10 µM (SNB-75) was 57.5%.

`COc1ccc(OC)c(/C=C/c2nnc(Nc3ccc(Cl)cc3)o2)c1` showed a GI50 (CAKI-1) of 6.02 µM, a TGI (CAKI-1) of over 100 µM and a CC50 (CAKI-1) of over 100 µM. It also gave a GI50 (COLO 205) of 16.6 µM, a TGI (COLO 205) of over 100 µM and a CC50 (COLO 205) of over 100 µM. The GI50 (A498) was 1.87 µM, the LC50 (A498) was over 100 µM and the TGI (A498) was 7.76 µM. The inhibition of growth at 10 µM (A549) was 59.8%, the inhibition of growth at 10 µM (HCT-116) was 78.1% and the GI50 (786-0 [1]) was 2.67 µM. For the same compound, the TGI (786-0 [1]) was 7.6 µM, the CC50 (786-0 [1]) was 55.3 µM and the GI50 (MCF7) was 20.7 µM. The TGI (MCF7) was over 100 µM, the CC50 (MCF7) was over 100 µM and the GI50 (SR) was 48.2 µM. The TGI (SR) was over 100 µM, the CC50 (SR) was over 100 µM and the GI50 (SN12C) was 4.21 µM. For the same compound, the LC50 (SN12C) was over 100 µM, the TGI (SN12C) was over 100 µM and the GI50 (PC-3) was 13.3 µM. The TGI (PC-3) was 76 µM, the CC50 (PC-3) was over 100 µM and the GI50 (SNB-19 [2]) was 13.8 µM. It also gave a TGI (SNB-19 [2]) of over 100 µM, a CC50 (SNB-19 [2]) of over 100 µM and a GI50 (SK-MEL-2) of 9.66 µM. For the same compound, the TGI (SK-MEL-2) was over 100 µM, the CC50 (SK-MEL-2) was over 100 µM and the GI50 (OVCAR-4) was 2.44 µM. For the same compound, the TGI (OVCAR-4) was 6.76 µM, the CC50 (OVCAR-4) was over 100 µM and the inhibition of growth at 10 µM (ACHN) was 67.4%. It also gave a GI50 (SK-MEL-5) of 7.17 µM, an LC50 (SK-MEL-5) of over 100 µM and a TGI (SK-MEL-5) of over 100 µM. The GI50 (EKVX) was 40.5 µM, the TGI (EKVX) was over 100 µM and the CC50 (EKVX) was over 100 µM. The GI50 (IGROV-1) was 7.7 µM, the LC50 (50% lethal concentration) (IGROV-1) was over 100 µM and the TGI (IGROV-1) was over 100 µM. For the same compound, the inhibition of growth at 10 µM (SW-620) was 33.3%, the GI50 (MDA-MB-435) was 37 µM and the TGI (MDA-MB-435) was over 100 µM. It also gave a CC50 (MDA-MB-435) of over 100 µM, an MBC (Staphylococcus aureus) of 50 µg/mL (≈ 140 µM) and an MIC (Staphylococcus aureus) of 50 µg/mL (≈ 140 µM). For the same compound, the MBC (Escherichia coli) was 50 µg/mL (≈ 140 µM), the MIC (Escherichia coli) was 50 µg/mL (≈ 140 µM) and the MBC (Bacillus subtilis) was 100 µg/mL (≈ 279 µM). For the same compound, the MIC (Bacillus subtilis) was 100 µg/mL (≈ 279 µM), the inhibition of growth at 10 µM (786-0 [4]) was 72.1% and the GI50 (MDA-MB-468) was 16.4 µM. For the same compound, the TGI (MDA-MB-468) was over 100 µM, the CC50 (MDA-MB-468) was over 100 µM and the inhibition of growth at 10 µM (RXF 393) was 43.7%. It also gave an inhibition of growth at 10 µM (SNB-75) of 84.2%.
